{
  "source": "PubChem BioAssay AID1963969",
  "about": "(Molecular Pharmacology Branch, DTP, NCI, 2024)",
  "tested_on": "817829-284-R-J1-PDC multi-cell spheroid viability",
  "experiment": "Anticancer human tumor 817829-284-R-J1-PDC patient-derived colon adenocarcinoma cell line growth inhibition [PI3K]",
  "conditions": "for viability, T/C: stronger effect = lower value",
  "outline": "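Targeted small molecules plus PI3K inhibitors, half-log dose series from Cmax (default top 10 microM), were applied to heterotypic spheroids of cancer cells with HUVEC and MSCs. Viability indicated growth inhibition.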",
  "note": "Where “and” joins values, the source holds several entries; their conditions need not be identical. Identical values can stand only once.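 Also: spheroids exposed to agents for seven days before readout.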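 For viability, T/C in this document: percent of vehicle DMSO control viability which is 100%.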",
  "data": [
    {"smiles": "CC(Cn1ccc(-c2ccc(C#N)c(Cl)c2)n1)NC(=O)c1cc(C(C)O)[nH]n1", "note": "(stereo not drawn) + CC(Nc1ccc2c(c1)OCCn1cc(N3C(=O)OCC3C(F)F)nc1-2)C(N)=O", "values": [
      {"measurement": "IC50", "setting": "curve of first compound, second compound 0.00316 µM", "result": "> 10", "unit": "µM"},
      {"measurement": "IC50", "setting": "curve of first compound, second compound 0.01 µM", "result": 8.89, "unit": "µM"},
      {"measurement": "IC50", "setting": "curve of first compound, second compound 0.0316 µM", "result": "> 10", "unit": "µM"},
      {"measurement": "IC50", "setting": "curve of first compound, second compound 0.1 µM", "result": "> 10", "unit": "µM"},
      {"measurement": "IC50", "setting": "curve of first compound, second compound 0.316 µM", "result": "> 10", "unit": "µM"},
      {"measurement": "IC50", "setting": "curve of first compound, second compound 1 µM", "result": "> 10", "unit": "µM"},
      {"measurement": "viability, T/C", "setting": "second compound 0.00316 µM, first compound 0.0316 µM", "result": 91.8, "unit": "%"},
      {"measurement": "viability, T/C", "setting": "second compound 0.00316 µM, first compound 0.1 µM", "result": 127, "unit": "%"},
      {"measurement": "viability, T/C", "setting": "second compound 0.00316 µM, first compound 0.316 µM", "result": 99, "unit": "%"},
      {"measurement": "viability, T/C", "setting": "second compound 0.00316 µM, first compound 1 µM", "result": 96.2, "unit": "%"},
      {"measurement": "viability, T/C", "setting": "second compound 0.00316 µM, first compound 3.16 µM", "result": 94.4, "unit": "%"},
      {"measurement": "viability, T/C", "setting": "second compound 0.00316 µM, first compound 10 µM", "result": 53.1, "unit": "%"},
      {"measurement": "viability, T/C", "setting": "second compound 0.01 µM, first compound 0.0316 µM", "result": 140, "unit": "%"},
      {"measurement": "viability, T/C", "setting": "second compound 0.01 µM, first compound 0.1 µM", "result": 86.2, "unit": "%"},
      {"measurement": "viability, T/C", "setting": "second compound 0.01 µM, first compound 0.316 µM", "result": 86.4, "unit": "%"},
      {"measurement": "viability, T/C", "setting": "second compound 0.01 µM, first compound 1 µM", "result": 70.8, "unit": "%"},
      {"measurement": "viability, T/C", "setting": "second compound 0.01 µM, first compound 3.16 µM", "result": 63.5, "unit": "%"},
      {"measurement": "viability, T/C", "setting": "second compound 0.01 µM, first compound 10 µM", "result": 57.4, "unit": "%"},
      {"measurement": "viability, T/C", "setting": "second compound 0.0316 µM, first compound 0.0316 µM", "result": 67.4, "unit": "%"},
      {"measurement": "viability, T/C", "setting": "second compound 0.0316 µM, first compound 0.1 µM", "result": 96.8, "unit": "%"},
      {"measurement": "viability, T/C", "setting": "second compound 0.0316 µM, first compound 0.316 µM", "result": 78, "unit": "%"},
      {"measurement": "viability, T/C", "setting": "second compound 0.0316 µM, first compound 1 µM", "result": 78.6, "unit": "%"},
      {"measurement": "viability, T/C", "setting": "second compound 0.0316 µM, first compound 3.16 µM", "result": 74.1, "unit": "%"},
      {"measurement": "viability, T/C", "setting": "second compound 0.0316 µM, first compound 10 µM", "result": 59.9, "unit": "%"},
      {"measurement": "viability, T/C", "setting": "second compound 0.1 µM, first compound 0.0316 µM", "result": 81.5, "unit": "%"},
      {"measurement": "viability, T/C", "setting": "second compound 0.1 µM, first compound 0.1 µM", "result": 114, "unit": "%"},
      {"measurement": "viability, T/C", "setting": "second compound 0.1 µM, first compound 0.316 µM", "result": 62.3, "unit": "%"},
      {"measurement": "viability, T/C", "setting": "second compound 0.1 µM, first compound 1 µM", "result": 117, "unit": "%"},
      {"measurement": "viability, T/C", "setting": "second compound 0.1 µM, first compound 3.16 µM", "result": 79.5, "unit": "%"},
      {"measurement": "viability, T/C", "setting": "second compound 0.1 µM, first compound 10 µM", "result": 55.3, "unit": "%"},
      {"measurement": "viability, T/C", "setting": "second compound 0.316 µM, first compound 0.0316 µM", "result": 77.1, "unit": "%"},
      {"measurement": "viability, T/C", "setting": "second compound 0.316 µM, first compound 0.1 µM", "result": 66.1, "unit": "%"},
      {"measurement": "viability, T/C", "setting": "second compound 0.316 µM, first compound 0.316 µM", "result": 76.8, "unit": "%"},
      {"measurement": "viability, T/C", "setting": "second compound 0.316 µM, first compound 1 µM", "result": 58.7, "unit": "%"},
      {"measurement": "viability, T/C", "setting": "second compound 0.316 µM, first compound 3.16 µM", "result": 110, "unit": "%"},
      {"measurement": "viability, T/C", "setting": "second compound 0.316 µM, first compound 10 µM", "result": 46.4, "unit": "%"},
      {"measurement": "viability, T/C", "setting": "second compound 1 µM, first compound 0.0316 µM", "result": 75.5, "unit": "%"},
      {"measurement": "viability, T/C", "setting": "second compound 1 µM, first compound 0.1 µM", "result": 39, "unit": "%"},
      {"measurement": "viability, T/C", "setting": "second compound 1 µM, first compound 0.316 µM", "result": 65.6, "unit": "%"},
      {"measurement": "viability, T/C", "setting": "second compound 1 µM, first compound 1 µM", "result": 72.9, "unit": "%"},
      {"measurement": "viability, T/C", "setting": "second compound 1 µM, first compound 3.16 µM", "result": 60, "unit": "%"},
      {"measurement": "viability, T/C", "setting": "second compound 1 µM, first compound 10 µM", "result": 50.8, "unit": "%"}
    ]},
    {"smiles": "CCCS(=O)(=O)Nc1ccc(F)c(C(=O)c2c[nH]c3ncc(-c4ccc(Cl)cc4)cc23)c1F", "values": [
      {"measurement": "viability, T/C", "setting": "compound 0.0316 µM", "result": "91.8% and 75.6% and 87.7%"},
      {"measurement": "viability, T/C", "setting": "compound 0.1 µM", "result": "75.9% and 81.4% and 57.4%"},
      {"measurement": "viability, T/C", "setting": "compound 0.316 µM", "result": "82.7% and 65.9% and 44.2%"},
      {"measurement": "viability, T/C", "setting": "compound 1 µM", "result": "90% and 62.3% and 54.9%"},
      {"measurement": "viability, T/C", "setting": "compound 3.16 µM", "result": "68% and 89.2% and 50.6%"},
      {"measurement": "viability, T/C", "setting": "compound 10 µM", "result": "7.12% and 5.31% and 3%"},
      {"measurement": "IC50", "setting": "curve of compound", "result": "4.45 µM and 4.78 µM and 1.42 µM"}
    ]},
    {"smiles": "CC(C)NCC(C(=O)N1CCN(c2ncnc3c2C(C)CC3O)CC1)c1ccc(Cl)cc1", "note": "(stereo not drawn)", "values": [
      {"measurement": "viability, T/C", "setting": "compound 0.0316 µM", "result": "74.6% and 90.4%"},
      {"measurement": "viability, T/C", "setting": "compound 0.1 µM", "result": "61.1% and 54.8%"},
      {"measurement": "viability, T/C", "setting": "compound 0.316 µM", "result": "38.5% and 41.4%"},
      {"measurement": "viability, T/C", "setting": "compound 1 µM", "result": "28% and 27.8%"},
      {"measurement": "viability, T/C", "setting": "compound 3.16 µM", "result": "21% and 17.3%"},
      {"measurement": "viability, T/C", "setting": "compound 10 µM", "result": "10.7% and 10.9%"},
      {"measurement": "IC50", "setting": "curve of compound", "result": "0.179 µM and 0.168 µM"}
    ]},
    {"smiles": "C=CC(=O)N1CCN(c2nc(=O)n(-c3c(C)ccnc3C(C)C)c3nc(-c4c(O)cccc4F)c(F)cc23)C(C)C1", "note": "(stereo not drawn)", "values": [
      {"measurement": "viability, T/C", "setting": "compound 0.0316 µM", "result": "90.5% and 112%"},
      {"measurement": "viability, T/C", "setting": "compound 0.1 µM", "result": "107% and 70.5%"},
      {"measurement": "viability, T/C", "setting": "compound 0.316 µM", "result": "70.2% and 97.6%"},
      {"measurement": "viability, T/C", "setting": "compound 1 µM", "result": "104% and 120%"},
      {"measurement": "viability, T/C", "setting": "compound 3.16 µM", "result": "85.3% and 104%"},
      {"measurement": "viability, T/C", "setting": "compound 10 µM", "result": "44.3% and 48.8%"},
      {"measurement": "IC50", "setting": "curve of compound", "result": "8.66 µM and 9.74 µM"}
    ]}
  ]
}
